“And” between values parts separate entries of the source, which are not always exact repeats. Identical values can stand only once. “Also recorded” adds a separate entry of the source.
Columns and labels:
[1] = tested on: adult subjects with late-onset Pompe disease (LOPD); assay: Study ATB200-03: SGIC, PGIC and additional PROs (PROMIS-dyspnea, PROMIS-upper extremity, R-PAct, EQ-5D-5L); format: in vivo, human; settings: week 52
Text: Additional PROs included PROMIS-dyspnea, PROMIS-upper extremity, R-PACT, EQ-5D-5L, SGIC. The PGIC was also included.
Across all of these domains a greater percentage of patients in the overall population treated with cipaglucosidase alfa/miglustat reported improvement, and a lower percentage reported worsening, compared with patients treated with alglucosidase alfa. […] Results are shown below for the SGIC overall physical well-domain, which is representative of the benefits reported across these measures (FIG. 86).

[2] = Study ATB200-02: safety (TEAEs); settings: in vivo
Text: Mean (SD) duration of treatment was 37.2 (14.48), 19.9 (4.13) and 36.9 (12.14) months in cohorts 1 (prior ERT 2-6 years), 4 (prior ERT ≥7 years) and 3 (ERT naive), respectively.
Mean (SD) duration of treatment was 46.3 (22.86) months.

[3] = tested on: adults with Pompe disease; assay: Study ATB200-02 (20 mg/kg cipaglucosidase alfa IV + 260 mg miglustat): 6MWT (6MWD, % predicted 6MWD); format: in vivo, human;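 note: Open-label Phase I/II trial, ambulatory cohorts only, values are changes from baseline or counts relative to the baseline walk test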
Protocol: The change from baseline (CFBL) in 6MWD, % predicted sitting FVC, manual muscle test (MMT) and biomarkers—urine glucose tetrasaccharide (Hex4) and serum creatine kinase (CK)—were assessed at regular intervals.
The 4 cohorts in the study are as follows: • Cohort 1: ERT-experienced (2 to 6 years) ambulatory subjects (11 subjects) • Cohort 2: ERT-experienced (≥2 years) non-ambulatory subjects (6 subjects) • Cohort 3: ERT-naïve ambulatory subjects (6 subjects)· • Cohort 4: ERT-experienced (≥7 years) ambulatory subjects (6 subjects)
In Study ATB200-02, motor function was evaluated in all ambulatory subjects (ie, Cohorts 1, 3, and 4) (Table 23, FIGS. 46A-46D).

[4] = tested on: adults with Pompe disease; assay: Study ATB200-02: patient-reported outcomes (FSS, R-PAct, RHS); format: in vivo, human
Text: Favorable findings observed through 48 months of treatment in 6MWD and FVC are bolstered by favorable directional trends in several other secondary endpoints for muscle strength, motor function, and respiratory function.
PROs supported the improvements observed for motor function, muscle strength and pulmonary function tests. […] SGIC outcomes for overall physical wellbeing improved in most patients across all cohorts after 48 months of follow up (Table 26C). PGIC results indicated an improvement or stabilization for all cohorts after 48 months of follow up and supported the results of other efficacy outcomes (Table 26C).
One patient reported no change, and one reported an improvement from baseline in SGIC overall physical wellbeing.

[5] = Ambulatory ERT-experienced, 12 months
[6] = Ambulatory ERT-experienced, 24 months
[7] = Ambulatory ERT-experienced, 36 months
[8] = Ambulatory ERT-experienced, 48 months
[9] = Ambulatory ERT-naïve, 12 months
[10] = Ambulatory ERT-naïve, 24 months
[11] = Ambulatory ERT-naïve, 36 months
[12] = Ambulatory ERT-naïve, 48 months
[13] = Cohort 1 + Cohort 3 + Cohort 4, Month 12
[14] = Cohort 1 + Cohort 3 + Cohort 4, Month 24
[15] = Cohort 1 + Cohort 3 + Cohort 4, Month 36
[16] = Cohort 1 + Cohort 3 + Cohort 4, Month 48
[17] = Non-ambulatory ERT-experienced, 12 months
[18] = Non-ambulatory ERT-experienced, 24 months
[19] = Non-ambulatory ERT-experienced, 36 months
[20] = Non-ambulatory ERT-experienced, 48 months

## ATB200/miglustat: two-component therapy: cipaglucosidase alfa (ATB200) administered in conjunction with miglustat (AT2221), a stabilizer of cipaglucosidase alfa
[1]
  SGIC and PGIC outcome: SGIC and PGIC showed consistently greater improvement favoring cipaglucosidase alfa/miglustat treatment
[2]
  TEAE profile / tolerability: most TEAEs were mild or moderate in severity and did not lead to study withdrawal
[3]; 48 months, Cohorts 1, 3, 4
  motor function by 6MWT: clinically meaningful improvements in motor function as measured by the 6MWT
[3]; [5]
  6MWD, CFBL mean: 33.5 meters
  Percent predicted 6MWD, CFBL mean: 6.1
[3]; [6]
  6MWD, CFBL mean: 25.2 meters
  Percent predicted 6MWD, CFBL mean: 5.4
[3]; [7]
  6MWD, CFBL mean: 9.8 meters
  Percent predicted 6MWD, CFBL mean: 3.4
[3]; [8]
  6MWD, CFBL mean: 20.7 meters
  Percent predicted 6MWD, CFBL mean: 5.9
[3]; [9]
  6MWD, CFBL mean: 57.0 meters
  Percent predicted 6MWD, CFBL mean: 10.7
[3]; [10]
  6MWD, CFBL mean: 54.4 meters
  Percent predicted 6MWD, CFBL mean: 11.0
[3]; [11]
  6MWD, CFBL mean: 43.5 meters
  Percent predicted 6MWD, CFBL mean: 9.0
[3]; [12]
  6MWD, CFBL mean: 52.2 meters
  Percent predicted 6MWD, CFBL mean: 11.7
[3]; [13]
  6MWD change from baseline, mean: 39.9 meters
  6MWD change from baseline, median: 27.4 meters
[3]; [14]
  6MWD change from baseline, mean: 34.4 meters
  6MWD change from baseline, median: 22.6 meters
[3]; [15]
  6MWD change from baseline, mean: 19.7 meters
  6MWD change from baseline, median: 24.2 meters
[3]; [16]
  6MWD change from baseline, mean: 30.4 meters
  6MWD change from baseline, median: 27.0 meters
[3]; Cohort 1 + Cohort 4 (ERT-experienced), Month 12, listed as cipaglucosidase alfa/miglustat
  6MWD change from baseline, mean: 33 meters and 33.5 meters
[3]; Cohort 1 + Cohort 4 (ERT-experienced), Month 24, listed as cipaglucosidase alfa/miglustat
  6MWD change from baseline, mean: 25 meters and 25.2 meters
[3]; Cohort 1 + Cohort 4 (ERT-experienced), Month 36, listed as cipaglucosidase alfa/miglustat
  6MWD change from baseline, mean: 9.8 meters
[3]; Cohort 1 + Cohort 4 (ERT-experienced), Month 48, listed as cipaglucosidase alfa/miglustat
  6MWD change from baseline, mean: 20 meters and 20.7 meters
[3]; Cohort 1 + Cohort 4, Month 12
  6MWD change from baseline, median: 20.6 meters
[3]; Cohort 1 + Cohort 4, Month 24
  6MWD change from baseline, median: 18.5 meters
[3]; Cohort 1 + Cohort 4, Month 36
  6MWD change from baseline, median: 11.6 meters
[3]; Cohort 1 + Cohort 4, Month 48
  6MWD change from baseline, median: 27.0 meters
[3]; Cohort 3 (ERT-naïve), Month 12, listed as cipaglucosidase alfa/miglustat
  6MWD change from baseline, mean: 57 meters and 57.0 meters
[3]; Cohort 3 (ERT-naïve), Month 24, listed as cipaglucosidase alfa/miglustat
  6MWD change from baseline, mean: 54 meters and 54.4 meters
[3]; Cohort 3 (ERT-naïve), Month 36, listed as cipaglucosidase alfa/miglustat
  6MWD change from baseline, mean: 43 meters and 43.5 meters
[3]; Cohort 3 (ERT-naïve), Month 48, listed as cipaglucosidase alfa/miglustat
  6MWD change from baseline, mean: 52 meters and 52.2 meters
[3]; Cohort 3, Month 12
  6MWD change from baseline, median: 55.6 meters
[3]; Cohort 3, Month 24
  6MWD change from baseline, median: 49.0 meters
[3]; Cohort 3, Month 36
  6MWD change from baseline, median: 59.0 meters
[3]; Cohort 3, Month 48
  6MWD change from baseline, median: 40.5 meters
[3]; ERT-experienced, 12 months
  patients whose 6MWD improved numerically from baseline (n/N): 13/16
[3]; ERT-experienced, 24 months
  patients whose 6MWD improved numerically from baseline (n/N): 9/13
[3]; ERT-experienced, 36 months
  patients whose 6MWD improved numerically from baseline (n/N): 6/12
[3]; ERT-experienced, 48 months
  patients whose 6MWD improved numerically from baseline (n/N): 6/9
[3]; ERT-experienced, Month 48
  patients with improvement from baseline in mean % predicted 6MWD: 88.9%
[3]; ERT-naïve, 12 months
  patients whose 6MWD improved numerically from baseline (n/N): 6/6
[3]; ERT-naïve, 24 months
  patients whose 6MWD improved numerically from baseline (n/N): 6/6
[3]; ERT-naïve, 36 months
  patients whose 6MWD improved numerically from baseline (n/N): 4/5
[3]; ERT-naïve, 48 months
  patients whose 6MWD improved numerically from baseline (n/N): 4/4
[3]; ERT-naïve, Month 48
  patients with improvement from baseline in mean % predicted 6MWD: 100%
[4]; 48 months, listed as cipaglucosidase alfa/miglustat
  patient-reported outcomes FSS, R-PAct, RHS: meaningful improvements in subject-perceived fatigue, ability to perform daily life activities, and overall physical well-being; also recorded: all ambulatory patients reported stable R-PAct scores and RHS compared with baseline scores; also recorded: improved FSS and stable RHS scores compared with baseline
[4]; [5]
  Fatigue Severity Scale, CFBL mean: −2.9
  Rasch-built Pompe-specific Activity, CFBL mean: 1.3
  Rotterdam Handicap Scale, CFBL mean: −0.3
[4]; [6]
  Fatigue Severity Scale, CFBL mean: −3.1
  Rasch-built Pompe-specific Activity, CFBL mean: 2.2
  Rotterdam Handicap Scale, CFBL mean: −1.1
[4]; [7]
  Fatigue Severity Scale, CFBL mean: 1.4
  Rasch-built Pompe-specific Activity, CFBL mean: −0.1
  Rotterdam Handicap Scale, CFBL mean: −2.3
[4]; [8]
  Fatigue Severity Scale, CFBL mean: −3.4
  Rasch-built Pompe-specific Activity, CFBL mean: −0.3
  Rotterdam Handicap Scale, CFBL mean: −2.3
[4]; [9]
  Fatigue Severity Scale, CFBL mean: −6.3
  Rasch-built Pompe-specific Activity, CFBL mean: 2.0
  Rotterdam Handicap Scale, CFBL mean: −0.4
[4]; [10]
  Fatigue Severity Scale, CFBL mean: −5.5
  Rasch-built Pompe-specific Activity, CFBL mean: 2.2
  Rotterdam Handicap Scale, CFBL mean: −0.4
[4]; [11]
  Fatigue Severity Scale, CFBL mean: −6.2
  Rasch-built Pompe-specific Activity, CFBL mean: 1.4
  Rotterdam Handicap Scale, CFBL mean: −1.2
[4]; [12]
  Fatigue Severity Scale, CFBL mean: 1.2
  Rasch-built Pompe-specific Activity, CFBL mean: −0.6
  Rotterdam Handicap Scale, CFBL mean: −1.3
[4]; [17]
  Fatigue Severity Scale, CFBL mean: −9.2
  Rasch-built Pompe-specific Activity, CFBL mean: 1.4
  Rotterdam Handicap Scale, CFBL mean: 0.6
[4]; [18]
  Fatigue Severity Scale, CFBL mean: −23.0
  Rasch-built Pompe-specific Activity, CFBL mean: 0.8
  Rotterdam Handicap Scale, CFBL mean: 0.6
[4]; [19]
  Fatigue Severity Scale, CFBL mean: −10.0
  Rasch-built Pompe-specific Activity, CFBL mean: 0.8
  Rotterdam Handicap Scale, CFBL mean: 0.6
[4]; [20]
  Fatigue Severity Scale, CFBL mean: −12.0
  Rasch-built Pompe-specific Activity, CFBL mean: 2.0
  Rotterdam Handicap Scale, CFBL mean: −1.5
